Experimental findings from patent US9133195B2, “Quaternary ammonium salt compounds of spirocyclopiperazines, preparation methods and uses thereof” (Peking University, priority 2006, dated 2015) are described below.

As a reminder, the inhibition in vivo is the relative decrease from the control value, in per cent. High values mean a strong effect, low ones a weak effect. One may read the melting point as the temperature of the solid-liquid transition.

Structures can show the parent of a compound that is named as a salt.

In one data set the test system is Kunming mice. In words: Acetic acid-induced writhing test. Format: in vivo. The note with it: 31.0 umol/kg s.c., acetic acid i.p. after 30 min, writhing counted for 10 min; for inhibition in vivo at 31 µmol/kg: Mus musculus, sc. Here is the method:
Kunming mice, male and female in half, were randomly divided into groups with 8 mice in each group. The following groups were established: the normal saline (NS) control group, in which normal saline was administered by subcutaneous injection (s.c.); the test groups, in which 31.0 umol/kg quaternary ammonium salts compounds of piperazines of the present invention was administered by s.c. All drugs were dissolved in normal saline before use. The drug was injected at the dose of 0.1 ml/10 g. After 30 min, 0.2 ml of 0.6% acetic acid was injected intraperitoneally for each mouse. After 2˜3 min, the writhing reactions such as abdominal constriction, stretch of body and hind limbs, and hip raise occurred. Five minutes after acetic acid injection, the numbers of writhing was counted for 10 min. The percentage of inhibition was determined by using the following formula (1): Inhibition %=[(The numbers of writhing of control group−the numbers of writhing of drag injection group)/the numbers of writhing of control group]×100% (1) 2 Experimental Results
This experiment was carried out according to that of Example 36.
Background: An intraperitoneal irritant provokes the stretching counted in writhing tests.

The nature of a further data set: Body temperature in mice. Type of data set: in vivo. The note with it: 2.0 mg/kg. As for the experimental part:
(§1) All the following tests were carried out by using compound LXM-10 according to the routine methods.

In data set [1] the test system is mice. Nature of the data set: Function of motion coordination (rota-rod). Type of data set: in vivo. To be noted: 2.0 mg/kg. Here is the method:
as §1
The effect of muscle-relaxed effect on the analgesic effect of LXM-10 was also excluded.
A general note: The rotarod test checks motor coordination on a turning rod.

Data set [2] deals with mice. In words: Spontaneous motion in mice. Type of data set: in vivo. The note with it: 2.0 mg/kg. As for the experimental part: as §1

`CC1C[N+]2(CCN(C/C=C/c3ccccc3)CC2)CC(C)O1` (stereo not shown) [LXM-30, 2,4-dimethyl-9-cinnamenyl-3-oxo-6,9-diazaspiro[5.5] undecane chloride] displayed an inhibition in vivo at 31 µmol/kg with Kunming mice of 43%.

In turn, `CC1C[N+]2(CCN(CCc3ccccn3)CC2)CC(C)O1` (stereo not shown) (as salt: chloride) [LXM-31] showed a melting point of 247 °C. Compound `C=CCN1CC[N+]2(CC1)CC(C)OC(C)C2` (stereo not shown) [LXM-28, 2,4-dimethyl-9-allyl-3-oxo-6,9-diazaspiro[5.5]undecane chloride] displayed an inhibition in vivo at 31 µmol/kg in the data set with Kunming mice of 49%. With `N#Cc1cccc(N2CC[N+]3(CCCC3)CC2)c1` [LXM-22, 8-(m-cyanophenyl)-5,8-diazaspiro[4.5]decane bromide], the inhibition in vivo at 31 µmol/kg with Kunming mice was 56%. Consider `c1cncc(N2CC[N+]3(CCCC3)CC2)c1` [LXM-25, 8-(3-pyridyl)-5,8-diazaspiro[4.5]decane bromide], for which the inhibition in vivo at 31 µmol/kg in the data set on Kunming mice is 37%. Consider `CC1C[N+]2(CCN(CCc3cccc(F)c3)CC2)CC(C)O1` (stereo not drawn) [LXM-8, 2,4-dimethyl-9-β-(m-fluorophenyl)ethyl-3-oxo-6,9-diazaspiro[5.5]undecane chloride], for which, in the data set with Kunming mice, the inhibition in vivo at 31 µmol/kg was determined as 55%.

With `O=[N+]([O-])c1cccc(N2CC[N+]3(CCCC3)CC2)c1` [LXM-16, 8-(m-nitrophenyl)-5,8-diazaspiro[4.5]decane bromide], the inhibition in vivo at 31 µmol/kg in the data set on Kunming mice amounted to 61%.

In turn, `COc1ccc(N2CC[N+]3(CCCC3)CC2)cc1` (as salt: bromide) [LXM-19, 8-(p-methoxyphenyl)-5,8-diazaspiro[4.5]decane bromide] gave a melting point of 201 to 203 °C.

In the case of `C=CCN1CC[N+]2(CC1)CC(C)OC(C)C2` (stereo not shown) (as salt: chloride) [LXM-28, 2,4-dimethyl-9-allyl-3-oxo-6,9-diazaspiro[5.5]undecane chloride], the melting point is 236 °C (dec.).

As for `CC1CC[N+]2(CC1)CCN(CCc1ccccc1)CC2` [LXM-6, 3-methyl-9-(β-phenylethyl)-6,9-diazaspiro[5.5]undecane chloride], the inhibition in vivo at 31 µmol/kg in the data set with Kunming mice came to 30%.

With `CC1CC[N+]2(CC1)CCN(CCc1ccccc1)CC2` (as salt: chloride) [LXM-6, 3-methyl-9-(β-phenylethyl)-6,9-diazaspiro[5.5]undecane chloride], the melting point is 230 °C (dec.). Regarding `Clc1ccc(N2CC[N+]3(CCCC3)CC2)nn1` [LXM-11, 8-(4-chloro-2,3-pyridazinyl)-5,8-diazaspiro[4.5]decane chloride], in the data set with Kunming mice, the inhibition in vivo at 31 µmol/kg stood at 44%. For `CN1C(=O)CN=C(c2ccccc2)c2cc(Cl)ccc21` [Diazepam, reference compound], the “Rectal temperature after treatment” value is 35.1 ± 0.26 °C in “Body temperature in mice” (0.5 h), 35.9 ± 0.35 °C in the data set “Body temperature in mice” (2.0 h) and 36.5 ± 0.31 °C in the data set “Body temperature in mice” (3.5 h). This compound displayed a Rectal temperature in “Body temperature in mice” (before treatment) of 37.6 ± 0.17 °C. Further, the figures for the “Time of falling down from rota-rod after treatment” value in the data set on mice [1] (0.5 h), in the data set with mice [1] (2.0 h) and with mice [1] (3.5 h) were 48.8 ± 14.0 s, 73.3 ± 14.1 s and 111.7 ± 6.70 s, respectively. The “Time of falling down from rota-rod” value in the data set on mice [1] (before treatment) is reported as 102.5 ± 6.48 s. Besides, the “Numbers of movement after treatment” value in the data set on mice [2] (0.5 h) worked out at 5.37 ± 1.64; in the data set on mice [2] (2.0 h) it was 10.8 ± 3.10; in the data set on mice [2] (3.5 h), 18.2 ± 3.61. Moreover, the Numbers of movement in the data set on mice [2] (before treatment) is on record as 51.5 ± 5.15.

Consider `Fc1cccc(N2CC[N+]3(CCCC3)CC2)c1` [LXM-21, 8-(m-fluorophenyl)-5,8-diazaspiro[4.5]decane bromide], for which, in the data set with Kunming mice, the inhibition in vivo at 31 µmol/kg amounted to 47%. On the same count and under the same terms, with `c1ccc(N2CC[N+]3(CCCC3)CC2)cc1` [LXM-18, 8-phenyl-5,8-diazaspiro[4.5]decane bromide] the figure was 20%. `CC1C[N+]2(CCN(CCc3cccc([N+](=O)[O-])c3)CC2)CC(C)S1` (stereo not drawn) [LXM-9, 2,4-dimethyl-9-β-(m-nitrophenyl)ethyl-3-thio-6,9-diazaspiro[5.5]undecane chloride]: the inhibition in vivo at 31 µmol/kg in the data set with Kunming mice is 62%. Turning to `Oc1cccc(N2CC[N+]3(CCCC3)CC2)c1` [LXM-20, 8-(m-hydroxyphenyl)-5,8-diazaspiro[4.5]decane bromide], the inhibition in vivo at 31 µmol/kg with Kunming mice was determined as 53%. `COc1ccc(N2CC[N+]3(CCCC3)CC2)cc1` [LXM-19, 8-(p-methoxyphenyl)-5,8-diazaspiro[4.5]decane bromide]: the inhibition in vivo at 31 µmol/kg in the data set on Kunming mice is 56%. In the case of `CCOC(=O)c1cccc(N2CC[N+]3(CCCC3)CC2)c1` [LXM-23, 8-(m-ethoxycarbonylphenyl)-5,8-diazaspiro[4.5]decane bromide], the inhibition in vivo at 31 µmol/kg with Kunming mice stood at 39%. `CC1C[N+]2(CCN(CCc3ccccn3)CC2)CC(C)O1` (stereo not shown) [LXM-31] gave an inhibition in vivo at 31 µmol/kg in the data set with Kunming mice of 58%. With `CC1C[N+]2(CCN(C/C=C/c3ccccc3)CC2)CC(C)O1` (stereo not shown) (as salt: chloride) [LXM-30, 2,4-dimethyl-9-cinnamenyl-3-oxo-6,9-diazaspiro[5.5] undecane chloride], the melting point was in the range of 266 to 268 °C. Regarding “8-(4-chloro-3-pyridyl)-5,8-diazaspiro[4.5]decane bromide [LXM-24]”, the “Inhibition(%) of writhing” value with Kunming mice came out at 46%. In the case of `c1ccc(N2CC[N+]3(CCCC3)CC2)cc1` (as salt: bromide) [LXM-18, 8-phenyl-5,8-diazaspiro[4.5]decane bromide], the melting point was in the range of 208 to 209 °C.
